Values after ≈ are worked out from the molar mass of the structure shown. Numbered stars: 1 amine (or outer) side, 2 acyl side, 3 side chain; on linkers, the order of the positions; unused ones are H or OH. Bridge positions count the residues as written; N and C are the ends. Square brackets hold non-standard residues; d marks the D form. Peptide text beside a SMILES is read from it. * marks the point of attachment. X3 = CCCCC[C@H](CC(=O)[*:1])O[*:2]; Myristoyl = CCCCCCCCCCCCCC(=O)*; dOrn = NCCC[C@@H](N)C(=O)O; Orn = NCCC[C@H](N)C(=O)O; Dab = NCC[C@H](N)C(=O)O; Dap = NC[C@H](N)C(=O)O
Key:
Assay type in all cases: cell-based
Escherichia coli DH5α = test: MIC assay (broth micro-dilution); details: Table S11; LB broth, 37 °C, 16 h, n = 2
Protocol: (§1) All MIC assays were performed two independent times (n = 2) in 96‐well plates using a broth micro‐dilution method. The lowest concentration of that inhibited visible microbial growth was recorded as the MIC value.
(§2) For most of bacterial strains, overnight cultures were diluted 5000‐fold in LB broth. For E. faecium and S. aureus, overnight cultures were diluted 1000‐ and 10000‐fold in LB broth, respectively. 100 µL of diluted cells was mixed with 100 µL of LB broth containing each peptide ranging from 64 to 0.125 µg mL^−1 at 2‐fold serial dilutions.

Shigella Castellani LXX = test: MIC assay (broth micro-dilution); details: Table S11; LB broth, 37 °C, 16 h, n = 2
Protocol: as §1, §2

[1] = system: Candida albicans ATCC 10231; test: MIC assay (YPD broth); details: Table S11; YPD broth, 30 °C, 16 h, n = 2
Protocol: as §1
(§3) For fungal strains, overnight cultures were diluted 2000‐fold in YPD broth. 100 µL of diluted cells was mixed with 100 µL of YPD broth containing each peptide ranging from […] 64 to 0.125 µg mL^−1 at 2‐fold serial dilutions.

[2] = system: Candida albicans ATCC 64550; details: ATCC 64550, 16 h
Protocol: as §1, §3

Enterococcus faecalis 28 = test: microbe, parasite or virus in culture; details: 28, 16 h
Protocol: as §1, §2

[3] = system: Staphylococcus aureus Newman; test: microbe, parasite or virus in culture; details: Newman, 16 h
Protocol: as §1, §2

[4] = system: Klebsiella pneumoniae ATCC 13883; test: microbe, parasite or virus in culture; details: ATCC 13883, 16 h
Protocol: as §1, §2

[5] = system: Enterococcus faecium 35682; test: microbe, parasite or virus in culture
Protocol: as §1, §2

[6] = system: Acinetobacter baumannii ATCC 19606; test: microbe, parasite or virus in culture; details: ATCC 19606, 16 h
Protocol: as §1, §2

[7] = system: Salmonella typhimurium LXX; test: microbe, parasite or virus in culture; details: murium LXX, 16 h
Protocol: as §1, §2

[8] = system: Salmonella enterica ATCC 14028; test: microbe, parasite or virus in culture; details: ATCC 14028, 16 h
Protocol: as §1, §2

[9] = system: Klebsiella pneumoniae CRKP HS11286; test: microbe, parasite or virus in culture; details: CRKP HS11286, 16 h
Protocol: as §1, §2

Enterococcus faecalis 26 = test: microbe, parasite or virus in culture; details: 26, 16 h
Protocol: as §1, §2

[10] = system: Staphylococcus aureus ATCC 25923; test: microbe, parasite or virus in culture; details: ATCC 25923, 16 h
Protocol: as §1, §2

[11] = system: Streptococcus mutans ATCC 25175; test: microbe, parasite or virus in culture; details: ATCC 25175, 16 h
Protocol: as §1, §2

[12] = system: Acinetobacter baumannii ATCC 17978; test: microbe, parasite or virus in culture; details: ATCC 17978, 16 h
Protocol: as §1, §2

[13] = system: Pseudomonas aeruginosa ATCC 9027; test: microbe, parasite or virus in culture; details: ATCC 9027, 16 h
Protocol: as §1, §2

[14] = system: Klebsiella pneumoniae NCTC 5056; test: microbe, parasite or virus in culture; details: NCTC 5056, 16 h
Protocol: as §1, §2

[15] = system: Staphylococcus aureus ATCC 6538; test: microbe, parasite or virus in culture; details: ATCC 6538, 16 h
Protocol: as §1, §2

[16] = system: Enterococcus faecalis ATCC 29212; test: microbe, parasite or virus in culture; details: ATCC 29212, 16 h
Protocol: as §1, §2

[17] = system: Acinetobacter baumannii P53; test: microbe, parasite or virus in culture; details: Table S11; LB broth, 37 °C, 16 h, n = 2
Protocol: as §1, §2

[18] = system: Klebsiella pneumoniae CRKP 5452; test: microbe, parasite or virus in culture; details: Table S11; LB broth, 37 °C, 16 h, n = 2
Protocol: as §1, §2

[19] = system: Vibrio alginolyticus XSBZ14; test: microbe, parasite or virus in culture; details: 16 h
Protocol: as §1, §2

[20] = system: Streptococcus pyogenes ATCC 19615; test: microbe, parasite or virus in culture; details: Table S11; LB broth, 37 °C, 16 h, n = 2
Protocol: as §1, §2

[21] = system: Staphylococcus aureus USA300; test: microbe, parasite or virus in culture; details: for antibacterial activity (MIC) S. aureus USA300: Figure S127b, wild type
Protocol: as §1, §2

[22] = system: Acinetobacter baumannii 1104008; test: microbe, parasite or virus in culture; details: Table S11; LB broth, 37 °C, 16 h, n = 2
Protocol: as §1, §2

[23] = system: Pseudomonas aeruginosa PAO1; test: microbe, parasite or virus in culture
Protocol: as §1, §2

[24] = system: S. aureus USA300 MprFT345A; test: MIC against daptomycin-resistant mutant; details: for antibacterial activity (MIC) S. aureus USA300 MprFT345A: Figure S127b, daptomycin-resistant mutant
Protocol: as §1, §2
(§4) Overnight cultures S. aureus USA300 were diluted 10000‐fold in LB broth, and 100 µL of dilute cell suspension was added to 96‐well plates containing 100 µL serially diluted aquicidine C4, telomycin, and daptomycin (with 15 mM CaCl2). Overnight cultures K. pneumoniae CRKP5452 were diluted 5000‐fold in LB broth, and 100 µL of dilute cell suspension was added to 96‐well plates containing 100 µL serially diluted aquicidine L and colistin. After an incubation of 24 h at 37 °C, the MIC value was determined. […] The MIC value was recorded as described above, and the process was repeated daily for 21 days. Experiments were performed two independent times (n = 2).
(§5) Single‐nucleotide polymorphisms (SNPs) for telomycin‐, daptomycin‐ or colistin‐resistant mutants were identified using SNIPPY by mapping DNBSEQ‐seq reads to the reference genome of S. aureus USA300 or K. pneumoniae CRKP5452.

[25] = system: S. aureus USA300 Cls2A338stop; test: MIC against telomycin-resistant mutant; details: for antibacterial activity (MIC) S. aureus USA300 Cls2A338stop: Figure S127b, telomycin-resistant mutant
Protocol: as §1, §2, §4, §5

[26] = Table S11, LB broth, 37 °C, 16 h, n = 2

Row | Compound | MIC Shigella Castellani LXX (Shigella Castellani LXX) [µg/mL] | MIC Candida albicans ATCC 10231 [1] [µg/mL] | MIC Candida albicans ATCC 64550 [2] [µg/mL] | MIC Enterococcus faecalis 28 (Enterococcus faecalis 28) [µg/mL] | MIC Staphylococcus aureus Newman [3] [µg/mL] | MIC Klebsiella pneumoniae ATCC 13883 [4] [µg/mL] | MIC Acinetobacter baumannii ATCC 19606 [6] [µg/mL] | MIC Salmonella typhimurium LXX [7] [µg/mL] | MIC Salmonella enterica ATCC 14028 [8] [µg/mL] | MIC Klebsiella pneumoniae CRKP HS11286 [9] [µg/mL] | MIC Enterococcus faecalis 26 (Enterococcus faecalis 26) [µg/mL] | MIC Staphylococcus aureus ATCC 25923 [10] [µg/mL] | MIC Streptococcus mutans ATCC 25175 [11] [µg/mL] | MIC Acinetobacter baumannii ATCC 17978 [12] [µg/mL] | MIC Pseudomonas aeruginosa ATCC 9027 [13] [µg/mL] | MIC Klebsiella pneumoniae NCTC 5056 [14] [µg/mL] | MIC Staphylococcus aureus ATCC 6538 [15] [µg/mL] | MIC Enterococcus faecalis ATCC 29212 [16] [µg/mL] | MIC Acinetobacter baumannii P53 [17] [µg/mL] | MIC Klebsiella pneumoniae CRKP 5452 [18] [µg/mL] | further results
1 | CCCCCCCCCCCCCC(=O)N[C@@H](Cc1ccccc1)C(=O)N[C@@H](CCCN)C(=O)N[C@H]1CCCNC(=O)CNC(=O)[C@H](CCN)NC(=O)[C@@H](Cc2ccc(O)cc2)NC(=O)[C@H](CC(C)C)NC(=O)[C@H]([C@@H](C)CC)NC(=O)[C@@H](C(C)C)NC1=O [synAQU2-C3] (Myristoyl-F[Orn][Orn][dV]IL[dY][Dab]G; lactam 3-C) | > 64 | > 64 | > 64 | > 64 | > 64 | > 64 | > 64 | > 64 | > 64 | > 64 | 8 (≈ 6.5 µM) | 16 (≈ 13 µM) | 8 (≈ 6.5 µM) | 4 (≈ 3.25 µM) | > 64 | 32 (≈ 26 µM) | 16 (≈ 13 µM) | 32 (≈ 26 µM) | 8 (≈ 6.5 µM) | > 64 | MIC Escherichia coli DH5α (Escherichia coli DH5α): > 64 µg/mL; MIC Enterococcus faecium 35682 [5, 26]: 8 µg/mL (≈ 6.5 µM); MIC Vibrio alginolyticus XSBZ14 [19]: 16 µg/mL (≈ 13 µM); MIC Streptococcus pyogenes ATCC 19615 [20]: 2 µg/mL (≈ 1.62 µM); MIC Staphylococcus aureus USA300 [21, 26]: > 64 µg/mL; MIC Acinetobacter baumannii 1104008 [22]: 8 µg/mL (≈ 6.5 µM); MIC Pseudomonas aeruginosa PAO1 [23, 26]: 32 µg/mL (≈ 26 µM)
2 | Daptomycin |  |  |  |  |  |  |  |  |  |  |  |  |  |  |  |  |  |  |  |  | antibacterial activity (MIC) S. aureus USA300 MprFT345A [24]: 16 µg/mL; increase in MIC against resistant mutant compared to wild type ([24]; S. aureus USA300 MprF^T345A vs wild type): 16 fold; antibacterial activity (MIC) S. aureus USA300 [21]: 1 µg/mL; antibacterial activity (MIC) S. aureus USA300 Cls2A338stop [25]: 1 µg/mL
3 | Telomycin |  |  |  |  |  |  |  |  |  |  |  |  |  |  |  |  |  |  |  |  | antibacterial activity (MIC) S. aureus USA300 MprFT345A [24]: 4 µg/mL; antibacterial activity (MIC) S. aureus USA300 [21]: 4 µg/mL; antibacterial activity (MIC) S. aureus USA300 Cls2A338stop [25]: 128 µg/mL; increase in MIC against resistant mutant compared to wild type ([25]; S. aureus USA300 Cls2^A338stop vs wild type): 32 fold
4 | CCCCC[C@@H]1CC(=O)N[C@@H](CN)C(=O)N[C@@H](Cc2ccccc2)C(=O)N[C@@H](CCN)C(=O)N[C@@H]([C@@H](C)O)C(=O)N[C@H](Cc2ccccc2)C(=O)N[C@@H](CN)C(=O)N[C@H](CC(C)C)C(=O)N[C@@H](C(C)C)C(=O)N[C@@H](CC(=O)O)C(=O)O1 [synAQU3-cFA] ([Dap]F[Dab]T[dF][Dap][dL]VD; linker N-C via X3) | 64 (≈ 56.3 µM) | 32 (≈ 28.1 µM) | 32 (≈ 28.1 µM) | > 64 | > 64 | > 64 | > 64 | 64 (≈ 56.3 µM) | > 64 | > 64 | 16 (≈ 14.1 µM) | > 64 | 32 (≈ 28.1 µM) | 64 (≈ 56.3 µM) | 32 (≈ 28.1 µM) | > 64 | > 64 | > 64 | > 64 | > 64 | MIC Enterococcus faecium 35682 [5, 26]: 32 µg/mL (≈ 28.1 µM); MIC Vibrio alginolyticus XSBZ14 [19]: > 64 µg/mL; MIC Streptococcus pyogenes ATCC 19615 [20]: 8 µg/mL (≈ 7.03 µM); MIC Staphylococcus aureus USA300 [21, 26]: > 64 µg/mL; MIC Acinetobacter baumannii 1104008 [22]: > 64 µg/mL; MIC Pseudomonas aeruginosa PAO1 ([23]; PAO1, 16 h): 64 µg/mL (≈ 56.3 µM)
5 | CCCCCCCCCCCCCC(=O)N[C@@H](CCCN)C(=O)N[C@H](Cc1ccc(O)cc1)C(=O)N[C@@H](C(=O)N[C@H]1C(=O)N[C@H](CCCN)C(=O)N[C@@H](CCCN)C(=O)N[C@H](C(C)C)C(=O)N[C@@H]([C@@H](C)CC)C(=O)N[C@@H](CC(C)C)C(=O)N[C@H](CCCN)C(=O)N[C@@H]([C@@H](C)O)C(=O)N[C@@H](C)C(=O)O[C@H]1C)C(C)C [synAQU6-C4] (Myristoyl-[Orn][dY][dV][dT][dOrn][Orn][dV]IL[dOrn]TA; ester 4-C) | > 64 | > 64 | > 64 | > 64 | > 64 | 32 (≈ 20.9 µM) | > 64 | 32 (≈ 20.9 µM) | 32 (≈ 20.9 µM) | 32 (≈ 20.9 µM) | 2 (≈ 1.31 µM) | 16 (≈ 10.5 µM) | 4 (≈ 2.62 µM) | 32 (≈ 20.9 µM) | > 64 | 32 (≈ 20.9 µM) | 16 (≈ 10.5 µM) | > 64 | > 64 | 16 (≈ 10.5 µM) | MIC Escherichia coli DH5α (Escherichia coli DH5α): 8 µg/mL (≈ 5.24 µM); MIC Enterococcus faecium 35682 ([5]; 35682, 16 h): 32 µg/mL (≈ 20.9 µM); MIC Vibrio alginolyticus XSBZ14 [19]: > 64 µg/mL; MIC Streptococcus pyogenes ATCC 19615 [20]: 4 µg/mL (≈ 2.62 µM); MIC Staphylococcus aureus USA300 ([21]; USA300, 16 h): > 64 µg/mL; MIC Acinetobacter baumannii 1104008 [22]: 32 µg/mL (≈ 20.9 µM); MIC Pseudomonas aeruginosa PAO1 ([23]; PAO1, 16 h): 16 µg/mL (≈ 10.5 µM)
